Laboratory results as given in ChEMBL document CHEMBL1201862, “PubChem BioAssay data set” (2004).
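In this assay, cells in 96-well plates receive the compound at five concentrations for 48 hours. Endpoints are linearly interpolated between the surrounding concentrations. Abbreviation: GI50, concentration required for 50% inhibition of growth.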 Calls of active or inactive are those of the source. Rule as the data show it: active = GI50 up to about 1.1 µM and inactive = higher.

Columns and labels:
Test in all cases: inhibition of tumour cell growth, NCI panel, 48 h
CAKI-1 = system: CAKI-1
NCI-H23 = system: NCI-H23
M14 = system: M14
HOP-92 = system: HOP-92
HCC 2998 = system: HCC 2998
TK-10 = system: TK-10
HCT-116 = system: HCT-116
HT-29 = system: HT-29
OVCAR-8 = system: OVCAR-8
RXF 393 = system: RXF 393
ACHN = system: ACHN
SK-MEL-2 = system: SK-MEL-2
CCRF-CEM = system: CCRF-CEM
IGROV-1 = system: IGROV-1
786-0 = system: 786-0
KM12 = system: KM12
RPMI-8226 = system: RPMI-8226
SNB-19 = system: SNB-19
SF-268 = system: SF-268
A498 = system: A498

Measured: GI50

Clc1ccc2[nH]c(CCSCCc3nc4ccc(Cl)cc4[nH]3)nc2c1
inactive: CAKI-1 4.55 µM | NCI-H23 13.6 µM | M14 13 µM | HOP-92 12.7 µM | HCC 2998 15.1 µM | TK-10 10.3 µM | HCT-116 6.21 µM | HT-29 11.6 µM | OVCAR-8 14.2 µM | RXF 393 17.5 µM | ACHN 2.25 µM | SK-MEL-2 15.3 µM | CCRF-CEM 10.8 µM | IGROV-1 10.2 µM | 786-0 13.5 µM | KM12 15.2 µM | RPMI-8226 2.34 µM

O=[N+]([O-])c1ccc(-n2nc3ccc4nonc4c3n2)cc1
inactive: CAKI-1 22.7 µM | NCI-H23 23.7 µM | SNB-19 25.4 µM | M14 52.1 µM | HOP-92 19.6 µM | HCC 2998 97.3 µM | TK-10 18.4 µM | HCT-116 74.6 µM | SF-268 34.3 µM | HT-29 > 100 µM | ACHN 41.3 µM | SK-MEL-2 47.9 µM | CCRF-CEM > 100 µM | IGROV-1 27.9 µM | 786-0 28.1 µM | KM12 94.8 µM | RPMI-8226 > 100 µM

O=c1cc(-c2ccccc2)[nH]c2cc(Cl)cc(Cl)c12
inactive: CAKI-1 49 µM | NCI-H23 57.7 µM | M14 > 100 µM | HOP-92 25.5 µM | TK-10 46.1 µM | HCT-116 31.6 µM | SF-268 28.4 µM | HT-29 > 100 µM | OVCAR-8 26.1 µM | RXF 393 15.2 µM | ACHN 43.9 µM | SK-MEL-2 46.1 µM | CCRF-CEM > 100 µM | IGROV-1 52.7 µM | 786-0 22 µM | KM12 5.04 µM | RPMI-8226 > 100 µM

CC(NC(=O)Cc1ccccc1)NC(=O)C(C)C(=O)Nc1ccccc1 (stereo not given)
inactive: CAKI-1 66.5 µM | NCI-H23 > 100 µM | SNB-19 24 µM | M14 > 100 µM | HOP-92 44.2 µM | TK-10 33.3 µM | HCT-116 > 100 µM | SF-268 36.6 µM | HT-29 > 100 µM | OVCAR-8 34.8 µM | RXF 393 47.1 µM | ACHN 41.6 µM | SK-MEL-2 > 100 µM | IGROV-1 61.5 µM | 786-0 52.2 µM | KM12 > 100 µM | RPMI-8226 > 100 µM

c1coc(C2=Nc3cccc4cccc(c34)N2)c1
inactive: CAKI-1 35.4 µM | NCI-H23 44.8 µM | SNB-19 > 100 µM | M14 25.4 µM | HOP-92 25.5 µM | HCC 2998 34.9 µM | TK-10 > 100 µM | HCT-116 23.1 µM | SF-268 68.2 µM | HT-29 23.2 µM | OVCAR-8 39.3 µM | RXF 393 25.9 µM | ACHN 22.1 µM | SK-MEL-2 29.3 µM | CCRF-CEM 32.1 µM | IGROV-1 > 100 µM | 786-0 53.3 µM | KM12 19.6 µM | RPMI-8226 71.8 µM

Cc1ccc(S(=O)(=O)N/N=C2\CC(C)OC3=C2CCCCCC3)cc1 (stereo not given)
inactive: CAKI-1 25.9 µM | NCI-H23 20.5 µM | SNB-19 22.2 µM | A498 15.5 µM | M14 20.3 µM | HOP-92 19.6 µM | TK-10 20.5 µM | HCT-116 16.5 µM | SF-268 19.9 µM | HT-29 17.5 µM | OVCAR-8 21.2 µM | RXF 393 17.6 µM | ACHN 18.5 µM | CCRF-CEM 24.7 µM | IGROV-1 19.1 µM | 786-0 17.1 µM | KM12 19.7 µM | RPMI-8226 21.9 µM
